Reference: article PMC8111447 (Frontiers in Pharmacology, 2021)
pIC50: −log10 of the molar value.

Assays:
Assay in all cases: Kinase panel (Eurofins)
Type in all cases: biochemical
Conditions in all cases: n = 2; for inhibition at 1 µM: at 1 μmol/L; for pIC50: read-out: IC50 kinase inhibition
ACK1(h) = molecular target: T1, ACK1(h) (Homo sapiens, UniProt Q07912)
T1 construct: purchased Eurofins
From the text: (§1) These receptors have a methionine gatekeeper in their kinase domains, and are related to hyperglycemia in other clinical trials of EGFR TKI, such as Co-1686.

Fes(h) = molecular target: T2, Fes(h) (Homo sapiens, UniProt P07332)
T2 construct: purchased Eurofins
T2 sequence (P07332 whole entry): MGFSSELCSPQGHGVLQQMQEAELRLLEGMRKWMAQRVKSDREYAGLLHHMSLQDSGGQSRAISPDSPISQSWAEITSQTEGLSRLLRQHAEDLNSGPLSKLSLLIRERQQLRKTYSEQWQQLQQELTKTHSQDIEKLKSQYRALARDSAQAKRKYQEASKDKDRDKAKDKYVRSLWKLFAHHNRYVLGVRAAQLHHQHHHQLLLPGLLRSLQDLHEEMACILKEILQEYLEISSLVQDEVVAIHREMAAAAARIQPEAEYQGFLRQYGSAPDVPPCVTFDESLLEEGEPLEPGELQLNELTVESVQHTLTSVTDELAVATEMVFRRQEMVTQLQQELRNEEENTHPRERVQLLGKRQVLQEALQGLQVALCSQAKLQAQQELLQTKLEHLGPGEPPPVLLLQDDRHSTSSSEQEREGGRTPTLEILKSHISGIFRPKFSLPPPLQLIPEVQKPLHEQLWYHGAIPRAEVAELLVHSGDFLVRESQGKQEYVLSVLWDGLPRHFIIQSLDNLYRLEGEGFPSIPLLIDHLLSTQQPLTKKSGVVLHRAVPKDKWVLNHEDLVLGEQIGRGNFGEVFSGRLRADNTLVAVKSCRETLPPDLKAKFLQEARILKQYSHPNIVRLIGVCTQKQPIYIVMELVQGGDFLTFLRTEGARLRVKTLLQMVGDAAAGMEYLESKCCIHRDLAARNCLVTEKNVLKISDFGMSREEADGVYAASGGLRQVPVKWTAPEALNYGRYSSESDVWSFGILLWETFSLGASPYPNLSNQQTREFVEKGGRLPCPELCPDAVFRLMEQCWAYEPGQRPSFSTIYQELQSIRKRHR
From the text: as §1

Flt3(h) = molecular target: T3, Flt3(h) (Homo sapiens, UniProt P36888)
T3 construct: purchased Eurofins
T3 sequence (P36888 27-993): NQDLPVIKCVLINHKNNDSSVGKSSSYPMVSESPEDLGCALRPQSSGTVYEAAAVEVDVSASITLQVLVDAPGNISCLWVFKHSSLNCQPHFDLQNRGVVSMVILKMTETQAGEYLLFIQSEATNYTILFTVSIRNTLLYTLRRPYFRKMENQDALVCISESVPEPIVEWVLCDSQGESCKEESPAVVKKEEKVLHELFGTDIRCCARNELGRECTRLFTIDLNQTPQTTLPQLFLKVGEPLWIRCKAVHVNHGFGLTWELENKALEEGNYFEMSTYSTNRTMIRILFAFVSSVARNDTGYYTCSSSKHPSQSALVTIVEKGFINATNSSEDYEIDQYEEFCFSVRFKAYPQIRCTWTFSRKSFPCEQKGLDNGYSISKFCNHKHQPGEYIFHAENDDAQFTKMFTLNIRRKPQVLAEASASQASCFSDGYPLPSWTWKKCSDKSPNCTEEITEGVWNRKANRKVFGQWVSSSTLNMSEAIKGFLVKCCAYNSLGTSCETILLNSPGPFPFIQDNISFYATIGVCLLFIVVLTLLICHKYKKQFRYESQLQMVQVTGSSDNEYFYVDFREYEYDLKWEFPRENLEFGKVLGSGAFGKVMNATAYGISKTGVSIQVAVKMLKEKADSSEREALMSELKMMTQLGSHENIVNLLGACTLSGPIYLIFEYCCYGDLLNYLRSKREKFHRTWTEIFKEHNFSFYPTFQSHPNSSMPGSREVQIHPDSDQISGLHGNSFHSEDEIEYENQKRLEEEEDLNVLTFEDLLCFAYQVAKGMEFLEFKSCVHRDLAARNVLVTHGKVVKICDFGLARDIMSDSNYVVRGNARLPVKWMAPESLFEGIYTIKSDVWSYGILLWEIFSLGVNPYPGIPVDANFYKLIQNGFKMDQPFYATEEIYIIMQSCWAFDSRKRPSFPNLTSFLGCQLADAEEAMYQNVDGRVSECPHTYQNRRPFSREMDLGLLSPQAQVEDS
From the text: as §1

Flt4(h) = molecular target: T4, Flt4(h) (Homo sapiens, UniProt P35916)
T4 construct: purchased Eurofins
T4 sequence (P35916 25-1363): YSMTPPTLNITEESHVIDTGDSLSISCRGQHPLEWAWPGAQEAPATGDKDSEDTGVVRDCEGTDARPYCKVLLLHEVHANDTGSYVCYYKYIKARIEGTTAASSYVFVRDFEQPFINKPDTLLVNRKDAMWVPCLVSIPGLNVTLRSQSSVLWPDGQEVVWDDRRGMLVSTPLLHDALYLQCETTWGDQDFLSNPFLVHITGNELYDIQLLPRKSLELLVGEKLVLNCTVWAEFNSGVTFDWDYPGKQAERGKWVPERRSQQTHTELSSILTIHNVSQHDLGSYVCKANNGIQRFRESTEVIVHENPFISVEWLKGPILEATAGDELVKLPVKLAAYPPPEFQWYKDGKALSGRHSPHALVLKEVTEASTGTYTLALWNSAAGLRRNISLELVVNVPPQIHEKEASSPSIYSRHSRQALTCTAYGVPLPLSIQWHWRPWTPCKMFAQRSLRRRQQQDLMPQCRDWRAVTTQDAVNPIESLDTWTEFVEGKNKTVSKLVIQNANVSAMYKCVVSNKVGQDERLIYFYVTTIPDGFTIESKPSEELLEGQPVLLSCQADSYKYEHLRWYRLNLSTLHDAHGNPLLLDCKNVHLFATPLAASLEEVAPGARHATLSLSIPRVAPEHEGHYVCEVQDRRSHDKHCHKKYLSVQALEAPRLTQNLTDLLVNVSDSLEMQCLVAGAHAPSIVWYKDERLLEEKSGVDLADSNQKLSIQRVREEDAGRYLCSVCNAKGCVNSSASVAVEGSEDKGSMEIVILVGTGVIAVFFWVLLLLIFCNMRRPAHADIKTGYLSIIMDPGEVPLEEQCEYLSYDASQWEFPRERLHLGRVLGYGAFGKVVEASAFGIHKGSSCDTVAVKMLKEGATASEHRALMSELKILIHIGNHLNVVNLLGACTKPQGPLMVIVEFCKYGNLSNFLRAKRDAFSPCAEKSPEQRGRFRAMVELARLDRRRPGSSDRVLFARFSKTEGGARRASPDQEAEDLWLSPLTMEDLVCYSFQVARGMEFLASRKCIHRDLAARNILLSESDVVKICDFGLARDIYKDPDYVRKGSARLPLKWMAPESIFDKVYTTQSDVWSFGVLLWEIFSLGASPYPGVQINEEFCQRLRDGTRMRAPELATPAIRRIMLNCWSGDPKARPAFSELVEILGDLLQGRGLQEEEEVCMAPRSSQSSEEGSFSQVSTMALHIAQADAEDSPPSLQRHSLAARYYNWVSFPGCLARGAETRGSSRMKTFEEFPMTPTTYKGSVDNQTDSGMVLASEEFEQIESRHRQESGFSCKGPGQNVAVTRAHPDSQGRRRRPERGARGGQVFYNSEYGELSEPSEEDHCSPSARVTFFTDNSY
From the text: as §1

JAK3(h) = molecular target: T5, JAK3(h) (Homo sapiens, UniProt P52333)
T5 construct: purchased Eurofins
T5 sequence (P52333 1-1124): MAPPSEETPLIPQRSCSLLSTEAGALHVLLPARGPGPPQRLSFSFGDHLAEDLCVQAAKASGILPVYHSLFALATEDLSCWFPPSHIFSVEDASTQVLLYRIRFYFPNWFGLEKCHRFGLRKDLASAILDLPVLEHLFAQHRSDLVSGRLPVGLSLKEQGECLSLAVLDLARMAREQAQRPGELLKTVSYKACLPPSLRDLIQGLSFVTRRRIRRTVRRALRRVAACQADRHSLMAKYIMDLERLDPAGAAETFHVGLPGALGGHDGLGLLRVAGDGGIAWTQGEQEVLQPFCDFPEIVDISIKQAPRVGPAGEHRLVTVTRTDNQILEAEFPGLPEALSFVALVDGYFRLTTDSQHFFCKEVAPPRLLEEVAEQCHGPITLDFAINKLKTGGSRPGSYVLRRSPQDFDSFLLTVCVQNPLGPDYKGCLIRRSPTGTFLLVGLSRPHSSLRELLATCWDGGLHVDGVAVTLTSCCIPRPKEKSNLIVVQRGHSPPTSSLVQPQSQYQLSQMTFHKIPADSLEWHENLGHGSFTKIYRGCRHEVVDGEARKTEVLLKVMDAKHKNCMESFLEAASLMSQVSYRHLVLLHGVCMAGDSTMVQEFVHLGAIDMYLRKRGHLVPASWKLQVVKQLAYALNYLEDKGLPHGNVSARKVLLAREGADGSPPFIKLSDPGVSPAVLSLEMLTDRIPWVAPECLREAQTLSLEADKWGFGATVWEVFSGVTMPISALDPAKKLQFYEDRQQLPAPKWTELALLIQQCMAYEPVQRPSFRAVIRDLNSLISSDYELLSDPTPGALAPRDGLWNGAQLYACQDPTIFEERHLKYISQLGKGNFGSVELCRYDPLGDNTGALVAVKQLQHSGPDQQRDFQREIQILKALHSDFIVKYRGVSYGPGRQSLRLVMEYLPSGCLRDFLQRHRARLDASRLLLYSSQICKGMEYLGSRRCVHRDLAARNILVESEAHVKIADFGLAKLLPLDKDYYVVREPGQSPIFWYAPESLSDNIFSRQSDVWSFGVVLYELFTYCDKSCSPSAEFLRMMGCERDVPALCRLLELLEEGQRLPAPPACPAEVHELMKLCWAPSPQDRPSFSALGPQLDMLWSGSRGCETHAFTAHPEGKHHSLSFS
From the text: as §1

LRRK2(h) = molecular target: T6, LRRK2(h) (Homo sapiens, UniProt Q5S007)
T6 construct: purchased Eurofins
From the text: as §1

Met(h) = molecular target: T7, Met(h) (Homo sapiens, UniProt P08581)
T7 construct: purchased Eurofins
T7 sequence (P08581 25-1390): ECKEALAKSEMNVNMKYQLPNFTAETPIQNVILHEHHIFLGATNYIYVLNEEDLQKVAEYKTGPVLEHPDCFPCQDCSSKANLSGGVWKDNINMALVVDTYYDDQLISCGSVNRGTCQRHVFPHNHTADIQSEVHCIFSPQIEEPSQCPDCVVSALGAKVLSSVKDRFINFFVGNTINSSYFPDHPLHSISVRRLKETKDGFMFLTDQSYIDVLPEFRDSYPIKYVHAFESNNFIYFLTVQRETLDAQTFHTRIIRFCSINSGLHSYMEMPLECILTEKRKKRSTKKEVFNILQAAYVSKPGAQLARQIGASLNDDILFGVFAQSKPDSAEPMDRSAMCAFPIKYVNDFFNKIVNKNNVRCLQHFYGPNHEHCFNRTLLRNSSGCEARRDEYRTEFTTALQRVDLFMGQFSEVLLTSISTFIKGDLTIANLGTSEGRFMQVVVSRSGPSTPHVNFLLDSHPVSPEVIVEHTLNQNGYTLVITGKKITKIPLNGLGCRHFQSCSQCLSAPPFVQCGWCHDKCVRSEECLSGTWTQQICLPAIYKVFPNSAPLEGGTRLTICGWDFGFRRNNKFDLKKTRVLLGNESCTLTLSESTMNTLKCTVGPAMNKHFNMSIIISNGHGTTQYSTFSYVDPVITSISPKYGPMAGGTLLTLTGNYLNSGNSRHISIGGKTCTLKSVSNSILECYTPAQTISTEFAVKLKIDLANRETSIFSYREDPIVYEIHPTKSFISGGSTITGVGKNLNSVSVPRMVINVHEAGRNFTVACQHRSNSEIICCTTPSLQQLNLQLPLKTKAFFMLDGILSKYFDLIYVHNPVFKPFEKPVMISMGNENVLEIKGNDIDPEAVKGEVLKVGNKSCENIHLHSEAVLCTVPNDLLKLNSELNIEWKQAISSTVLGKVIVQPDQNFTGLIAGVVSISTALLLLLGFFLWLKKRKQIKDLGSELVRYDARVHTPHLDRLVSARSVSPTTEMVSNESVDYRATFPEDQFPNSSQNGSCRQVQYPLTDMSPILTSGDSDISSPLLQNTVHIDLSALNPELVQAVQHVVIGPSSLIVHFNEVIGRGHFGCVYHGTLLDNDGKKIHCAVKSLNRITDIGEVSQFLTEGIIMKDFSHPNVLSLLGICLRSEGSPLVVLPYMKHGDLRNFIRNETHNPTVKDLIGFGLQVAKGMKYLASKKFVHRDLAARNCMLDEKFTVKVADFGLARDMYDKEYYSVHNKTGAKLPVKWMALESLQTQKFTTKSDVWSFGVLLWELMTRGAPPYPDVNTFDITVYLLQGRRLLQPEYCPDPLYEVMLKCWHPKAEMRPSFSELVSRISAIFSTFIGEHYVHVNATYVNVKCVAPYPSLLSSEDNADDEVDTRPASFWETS
From the text: as §1

TSSK1(h) = molecular target: T8, TSSK1(h) (Homo sapiens, UniProt Q9BXA7)
T8 construct: purchased Eurofins
T8 sequence (Q9BXA7 1-367): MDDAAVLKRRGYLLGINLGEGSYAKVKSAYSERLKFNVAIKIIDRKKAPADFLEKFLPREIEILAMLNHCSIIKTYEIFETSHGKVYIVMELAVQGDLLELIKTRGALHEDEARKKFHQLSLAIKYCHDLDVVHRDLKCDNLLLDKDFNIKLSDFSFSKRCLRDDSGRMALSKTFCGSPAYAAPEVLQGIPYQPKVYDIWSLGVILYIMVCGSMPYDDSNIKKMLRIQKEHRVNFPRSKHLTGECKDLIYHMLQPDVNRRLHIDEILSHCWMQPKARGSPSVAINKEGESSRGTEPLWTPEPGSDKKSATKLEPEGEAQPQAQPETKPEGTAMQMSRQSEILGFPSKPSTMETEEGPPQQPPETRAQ
From the text: as §1

T1 sequence (Q07912 whole entry): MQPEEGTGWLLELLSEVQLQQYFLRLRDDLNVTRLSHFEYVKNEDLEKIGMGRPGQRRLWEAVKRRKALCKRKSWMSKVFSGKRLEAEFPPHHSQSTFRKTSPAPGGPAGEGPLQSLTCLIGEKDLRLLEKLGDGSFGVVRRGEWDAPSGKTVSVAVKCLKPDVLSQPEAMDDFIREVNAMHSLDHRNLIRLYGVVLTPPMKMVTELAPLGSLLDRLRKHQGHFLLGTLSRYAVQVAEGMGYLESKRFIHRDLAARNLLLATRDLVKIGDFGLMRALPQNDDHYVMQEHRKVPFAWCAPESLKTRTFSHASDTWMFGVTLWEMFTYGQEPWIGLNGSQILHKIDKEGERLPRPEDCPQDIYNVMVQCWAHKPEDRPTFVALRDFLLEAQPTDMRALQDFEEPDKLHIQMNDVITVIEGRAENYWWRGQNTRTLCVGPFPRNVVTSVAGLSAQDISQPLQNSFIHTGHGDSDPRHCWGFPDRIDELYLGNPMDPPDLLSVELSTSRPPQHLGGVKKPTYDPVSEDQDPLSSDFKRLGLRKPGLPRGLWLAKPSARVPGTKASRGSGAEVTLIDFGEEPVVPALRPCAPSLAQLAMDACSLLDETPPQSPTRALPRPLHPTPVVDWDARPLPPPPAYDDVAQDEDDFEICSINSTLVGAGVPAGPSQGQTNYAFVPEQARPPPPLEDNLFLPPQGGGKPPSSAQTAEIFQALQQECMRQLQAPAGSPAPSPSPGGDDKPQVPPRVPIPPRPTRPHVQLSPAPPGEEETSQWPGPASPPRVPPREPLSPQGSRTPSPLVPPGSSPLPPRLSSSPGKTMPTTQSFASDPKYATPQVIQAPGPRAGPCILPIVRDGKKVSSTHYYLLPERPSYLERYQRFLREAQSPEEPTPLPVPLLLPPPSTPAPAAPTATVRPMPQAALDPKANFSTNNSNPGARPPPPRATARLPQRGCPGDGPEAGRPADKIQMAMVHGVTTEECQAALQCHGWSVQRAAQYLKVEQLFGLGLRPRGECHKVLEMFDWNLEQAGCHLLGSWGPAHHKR

Row | SMILES | inhibition at 1 µM (ACK1(h)) [%] | pIC50 (ACK1(h)) | inhibition at 1 µM (Fes(h)) [%] | pIC50 (Fes(h)) | inhibition at 1 µM (Flt3(h)) [%] | pIC50 (Flt3(h)) | inhibition at 1 µM (Flt4(h)) [%] | pIC50 (Flt4(h)) | inhibition at 1 µM (JAK3(h)) [%] | pIC50 (JAK3(h)) | inhibition at 1 µM (LRRK2(h)) [%] | pIC50 (LRRK2(h)) | inhibition at 1 µM (Met(h)) [%] | pIC50 (Met(h)) | inhibition at 1 µM (TSSK1(h)) [%] | pIC50 (TSSK1(h))
1 | C=CC(=O)Nc1cc(Nc2nccc(-c3c4n(c5ccccc35)CCCC4)n2)c(OC)cc1N(C)CCNC [Imp3] | 90 | 6.91 | 74 | 6.51 | 97 | 7.35 | 96 | 6.98 | 55 | 5.86 | 93 | 6.92 | 73 | 6.31 | 98 | 7.14
2 | C=CC(=O)Nc1cc(Nc2nccc(-c3c4n(c5ccccc35)CCCC4)n2)c(OC)cc1N(C)CCN(C)C [SH-1028] | 81 | 7.07 | 46 | 6.25 | 88 | 7.15 | 92 | 7.21 | 61 | 5.76 | 89 | 7.09 | 46 | 6.13 | 84 | 6.98
